Here are results for 22 molecules from patent US20220162191A1, “SMALL MOLECULE MODULATORS OF IL-17” (LEO PHARMA A/S, priority 2019, published 2022).

The assay deals with T1, human IL-17AA (Homo sapiens, UniProt Q16552).
T1 construct: host or cells: HEK (human embryonic kidney) cells
T1 sequence (Q16552 24-155) 1: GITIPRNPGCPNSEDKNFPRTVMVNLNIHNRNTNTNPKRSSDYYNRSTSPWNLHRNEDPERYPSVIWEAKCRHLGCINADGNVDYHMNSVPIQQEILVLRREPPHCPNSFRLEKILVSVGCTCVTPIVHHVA
T1 sequence (Q16552 24-155) 2: T1 sequence (Q16552 24-155) 1
In words: IL-8 release assay in human epithelial keratinocytes adult (HEKa). In kind it is cell-based. To be noted: 3 ng/ml human IL-17AA + 10 ng/ml human TNFalpha, 68-72 h, IL-8 by HTRF, read-out: Rel EC50 L-8 release assay. The gist of the method: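 IL-8 secretion, quantified by HTRF (665/620 nm) as percent of controls, served as the readout after 68–72 h culture of HEKa cells with compound plus IL-17AA (3 ng/ml final) and TNF-alpha (10 ng/ml final). Four-parameter logistic curves gave relative IC50 and Emax.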
On the technique in general: In TR-FRET formats the signal depends on donor and acceptor labels being close together.
For `Cc1n[nH]c(C)c1-c1ccc(NC(=O)[C@@H](NC(=O)C2(F)CC2)[C@@H]2CCCc3ccc(-c4ccnc(N5C[C@H]6C[C@@H]5CO6)c4)cc32)cc1` [Example 28, N-[(1S)-2-[4-(3,5-dimethyl-1H-pyrazol-4-yl)anilino]-1-[(1R)-7-[2-[(1R,4R)-2-oxa-5-azabicyclo[2.2.1]heptan-5-yl]-4-pyridyl]tetralin-1-yl]-2-oxo-ethyl]-1-fluoro-cyclopropanecarboxamide], the EC50 (usually the concentration at which the effect is half-maximal) was less than 100 nM.

For the molecule `COCOc1ccc(-c2ccc(Cl)c(CC(NC(=O)c3ccnn3C)C(=O)Nc3ccc(-c4nncn4C)cc3)c2)cc1C(=O)N(C)C` (stereo not shown) [Example 155, N-[1-[[2-chloro-5-[3-(dimethylcarbamoyl)-4-(methoxymethoxy)phenyl]phenyl]methyl]-2-[4-(4-methyl-1,2,4-triazol-3-yl)anilino]-2-oxo-ethyl]-2-methyl-pyrazole-3-carboxamide], the EC50 is more than 1000 nM.

For `CC(C)n1cc(-c2ccc(Cl)c(C[C@H](NC(=O)[C@@H]3CC3(F)F)C(=O)Nc3ccc(-c4nncn4C)cc3)c2)ccc1=O` [Example 287, (1S)-N-[(1S)-1-[[2-chloro-5-(1-isopropyl-6-oxo-3-pyridyl)phenyl]methyl]-2-[4-(4-methyl-1,2,4-triazol-3-yl)anilino]-2-oxo-ethyl]-2,2-difluoro-cyclopropanecarboxamide], the EC50 is more than 1000 nM.

In the case of `COc1cc(NC(=O)[C@H](Cc2cc(-c3ccc(=O)n(C(C)C)c3)ccc2Cl)NC(=O)c2conc2C)ccc1-c1ccnn1C` [Example 70, N-[(1S)-1-[[2-chloro-5-(1-isopropyl-6-oxo-3-pyridyl)phenyl]methyl]-2-[3-methoxy-4-(2-methylpyrazol-3-yl)anilino]-2-oxo-ethyl]-3-methyl-isoxazole-4-carboxamide], the EC50 was more than 1000 nM.

For `Cc1n[nH]c(C)c1-c1ccc(NC(=O)[C@@H](NC(=O)C2(F)CC2)[C@@H]2CCc3ccc(-c4ccnc(N5C[C@@H]6C[C@H]5CO6)n4)cc32)cc1` [Example 367, N-[(1S)-2-[4-(3,5-dimethyl-1H-pyrazol-4-yl)anilino]-1-[(1R)-6-[2-[(1S,4S)-2-oxa-5-azabicyclo[2.2.1]heptan-5-yl]pyrimidin-4-yl]indan-1-yl]-2-oxo-ethyl]-1-fluoro-cyclopropanecarboxamide], the EC50 is less than 100 nM.

For `CC(C)n1cc(-c2ccc(Cl)c(C[C@H](NC(=O)c3ccnn3C)C(=O)Nc3ccc(-c4cn[nH]c4)c(F)c3)c2)ccc1=O` [Example 138, N-[(1S)-1-[[2-chloro-5-(1-isopropyl-6-oxo-3-pyridyl)phenyl]methyl]-2-[3-fluoro-4-(1H-pyrazol-4-yl)anilino]-2-oxo-ethyl]-2-methyl-pyrazole-3-carboxamide], the EC50 fell in the range of 100 to 1000 nM.

For `Cc1cnn(C)c1-c1ccc(NC(=O)[C@@H](NC(=O)C2(F)CC2)[C@@H]2CCc3ccc(-c4cncc(N5C[C@@H]6C[C@H]5CO6)n4)cc32)cc1` [Example 379, N-[(1S)-2-[4-(2,4-dimethylpyrazol-3-yl)anilino]-1-[(1R)-6-[6-[(1S,4S)-2-oxa-5-azabicyclo[2.2.1]heptan-5-yl]pyrazin-2-yl]indan-1-yl]-2-oxo-ethyl]-1-fluoro-cyclopropanecarboxamide], the EC50 is less than 100 nM.

On to `Cn1cnnc1-c1ccc(NC(=O)C(Cc2cc(-c3cccc(C4(O)CCC4)c3)ccc2Cl)NC(=O)c2ccnn2C)cc1` (stereo not shown) [Example 144, N-[1-[[2-chloro-5-[3-(1-hydroxycyclobutyl)phenyl]phenyl]methyl]-2-[4-(4-methyl-1,2,4-triazol-3-yl)anilino]-2-oxo-ethyl]-2-methyl-pyrazole-3-carboxamide], for which the EC50 lay in the range of 100 to 1000 nM.

On to `Cc1n[nH]c(C)c1-c1ccc(NC(=O)[C@@H](NC(=O)C2(F)CC2)[C@@H]2CCc3ccc(-n4cnc(C(C)C)c4)cc32)cc1` [Example 360, N-[(1S)-2-[4-(3,5-dimethyl-1H-pyrazol-4-yl)anilino]-1-[(1R)-6-(4-isopropylimidazol-1-yl)indan-1-yl]-2-oxo-ethyl]-1-fluoro-cyclopropanecarboxamide], for which the EC50 lay in the range of 100 to 1000 nM.

For the molecule `Cc1n[nH]cc1-c1ccc(NC(=O)C(NC(=O)c2ccnn2C)C(c2ccccc2)c2cccc(-c3ccc(=O)n(C(C)C)c3)c2)cc1` (single isomer, unassigned; diastereomer 2) [Example 236, N-[1-[[3-(1-isopropyl-6-oxo-3-pyridyl)phenyl]-phenyl-methyl]-2-[4-(3-methyl-1H-pyrazol-4-yl)anilino]-2-oxo-ethyl]-2-methyl-pyrazole-3-carboxamide (Diastereomer 2)], the EC50 is less than 100 nM.

`Cn1cncc1-c1ccc(NC(=O)C(Cc2cc(-c3ccnc(N4CC(O)C4)c3)ccc2Cl)NC(=O)c2ccnn2C)cc1` (stereo not shown) [Example 193, N-[1-[[2-chloro-5-[2-(3-hydroxyazetidin-1-yl)-4-pyridyl]phenyl]methyl]-2-[4-(3-methylimidazol-4-yl)anilino]-2-oxo-ethyl]-2-methyl-pyrazole-3-carboxamide]: the EC50 fell in the range of 100 to 1000 nM.

For the molecule `Cc1nocc1C(=O)N[C@@H](Cc1cc(-c2ccnc(C(O)C3CC3)c2)ccc1Cl)C(=O)Nc1ccc(-n2ccnc2C)cc1` (stereo partly drawn) [Example 125, N-[(1S)-1-[[2-chloro-5-[2-[cyclopropyl(hydroxy)methyl]-4-pyridyl]phenyl]methyl]-2-[4-(2-methylimidazol-1-yl)anilino]-2-oxo-ethyl]-3-methyl-isoxazole-4-carboxamide], the EC50 was in the range of 100 to 1000 nM.

For `Cc1nccn1-c1ccc(NC(=O)[C@@H](NC(=O)C2(F)CC2)[C@@H]2CCCc3ccc(-c4ccnc(N5C[C@@H]6C[C@H]5CO6)c4)cc32)cc1` [Example 400, 1-fluoro-N-[(1S)-2-[4-(2-methylimidazol-1-yl)anilino]-1-[(1R)-7-[2-[(1S,4S)-2-oxa-5-azabicyclo[2.2.1]heptan-5-yl]-4-pyridyl]tetralin-1-yl]-2-oxo-ethyl]cyclopropanecarboxamide], the EC50 lay in the range of 100 to 1000 nM.

Turning to `CCc1cccc(-c2ccc(Cl)c(CC(NC(=O)c3ccnn3C)C(=O)Nc3ccc(-c4nncn4C)cc3)c2)c1` (stereo not shown) [Example 108, N-[1-[[2-chloro-5-(3-ethylphenyl)phenyl]methyl]-2-[4-(4-methyl-1,2,4-triazol-3-yl)anilino]-2-oxo-ethyl]-2-methyl-pyrazole-3-carboxamide], the EC50 is 100 to 1000 nM.

In the case of `CC(C)c1cc(-c2ccc(Cl)c(CC(NC(=O)c3ccnn3C)C(=O)Nc3ccc(-c4nncn4C4CC4)cc3)c2)ccn1` (stereo not shown) [Example 74, N-[1-[[2-chloro-5-(2-isopropyl-4-pyridyl)phenyl]methyl]-2-[4-(4-cyclopropyl-1,2,4-triazol-3-yl)anilino]-2-oxo-ethyl]-2-methyl-pyrazole-3-carboxamide], the EC50 lay in the range of 100 to 1000 nM.

Consider `Cc1ncn(C)c1-c1ccc(NC(=O)[C@H](Cc2cc(-c3cnn(C(C)(C)C)c3)ccc2Cl)NC(=O)c2ccnn2C)cc1` [Example 182, N-[(1S)-1-[[5-(1-tert-butylpyrazol-4-yl)-2-chloro-phenyl]methyl]-2-[4-(3,5-dimethylimidazol-4-yl)anilino]-2-oxo-ethyl]-2-methyl-pyrazole-3-carboxamide], for which the EC50 was less than 100 nM.

`CC(C)n1cc(-c2ccc(Cl)c(CC(NC(=O)c3ccnn3C)C(=O)Nc3ccc(-c4ncnn4C)cc3)c2)ccc1=O` (stereo not shown) [Example 301, N-[1-[[2-chloro-5-(1-isopropyl-6-oxo-3-pyridyl)phenyl]methyl]-2-[4-(2-methyl-1,2,4-triazol-3-yl)anilino]-2-oxo-ethyl]-2-methyl-pyrazole-3-carboxamide]: the EC50 was more than 1000 nM.

As for `Cc1cnn(C)c1-c1ccc(NC(=O)[C@@H](NC(=O)OC(C)(C)C)[C@@H](c2cccc(-c3ccnc(N4C[C@@H]5C[C@H]4CO5)c3)c2)C2CC2)cc1` [Example 346, tert-butyl N-[(1S)-1-[(R)-cyclopropyl-[3-[2-[(1S,4S)-2-oxa-5-azabicyclo[2.2.1]heptan-5-yl]-4-pyridyl]phenyl]methyl]-2-[4-(2,4-dimethylpyrazol-3-yl)anilino]-2-oxo-ethyl]carbamate], the EC50 was less than 100 nM.

With `Cc1cnn(C)c1-c1ccc(NC(=O)[C@@H](NC(=O)C2(F)CC2)[C@H](C)c2cccc(-c3cncc(N4C[C@@H]5C[C@H]4CO5)n3)c2)cc1` [Example 343, N-[(1S,2R)-1-[[4-(2,4-dimethylpyrazol-3-yl)phenyl]carbamoyl]-2-[3-[6-[(1S,4S)-2-oxa-5-azabicyclo[2.2.1]heptan-5-yl]pyrazin-2-yl]phenyl]propyl]-1-fluoro-cyclopropanecarboxamide], the EC50 lay in the range of 100 to 1000 nM.

With `CC(C)n1cc(-c2cccc(C(c3ccccc3)C(NC(=O)OC3CC3)C(=O)Nc3ccc(-c4cncn4C)cc3)c2)ccc1=O` (single isomer, unassigned; diastereomer 2) [Example 239, cyclopropyl N-[1-[[3-(1-isopropyl-6-oxo-3-pyridyl)phenyl]-phenyl-methyl]-2-[4-(3-methylimidazol-4-yl)anilino]-2-oxo-ethyl]carbamate (Diastereomer 2)], the EC50 is 100 to 1000 nM.

For `Cc1cnn(C)c1-c1ccc(NC(=O)[C@H](Cc2cc(-c3ccc(=O)n(C(C)C)c3)ccc2Cl)NC(=O)CCC(C)C)cc1` [Example 327, N-[(1S)-1-[[2-chloro-5-(1-isopropyl-6-oxo-3-pyridyl)phenyl]methyl]-2-[4-(2,4-dimethylpyrazol-3-yl)anilino]-2-oxo-ethyl]-4-methyl-pentanamide], the half-maximal effective concentration (EC50) fell in the range of 100 to 1000 nM.

Consider `Cc1nocc1C(=O)N[C@@H](Cc1cc(-c2ccnc(C(O)C(C)(C)C)c2)ccc1Cl)C(=O)Nc1ccc(-c2nncn2C)cc1` (stereo partly drawn) [Example 81, N-[(1S)-1-[[2-chloro-5-[2-(1-hydroxy-2,2-dimethyl-propyl)-4-pyridyl]phenyl]methyl]-2-[4-(4-methyl-1,2,4-triazol-3-yl)anilino]-2-oxo-ethyl]-3-methyl-isoxazole-4-carboxamide], for which the concentration for a half-maximal effect (EC50) fell in the range of 100 to 1000 nM.
